# Experimental data from PubChem BioAssay (NCI).
#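 These data come from cells grown in 96-well plates and exposed to compound for 48 hours at five concentrations. The concentration for 50% growth inhibition is given as GI50. TGI: concentration producing complete growth inhibition.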
# Tests used:
# Test in all cases: NCI tumour cell line growth inhibition, 48 h
# U251 CNS = system: U251 CNS
# SNB-19 CNS = system: SNB-19 CNS
# MOLT-4 leukemia = system: MOLT-4 leukemia
# SK-OV-3 ovarian = system: SK-OV-3 ovarian
# KM12 colon = system: KM12 colon
# UO-31 renal = system: UO-31 renal
# NCI-H226 lung = system: NCI-H226 lung
# TK-10 renal = system: TK-10 renal
# SK-MEL-5 melanoma = system: SK-MEL-5 melanoma
# HOP-92 NSCLC = system: HOP-92 NSCLC
Compound,GI50 (U251 CNS),TGI (U251 CNS),GI50 (SNB-19 CNS),TGI (SNB-19 CNS),GI50 (MOLT-4 leukemia),TGI (MOLT-4 leukemia),GI50 (SK-OV-3 ovarian),TGI (SK-OV-3 ovarian),GI50 (KM12 colon),TGI (KM12 colon),GI50 (UO-31 renal),TGI (UO-31 renal),GI50 (NCI-H226 lung),TGI (NCI-H226 lung),GI50 (TK-10 renal),TGI (TK-10 renal),GI50 (SK-MEL-5 melanoma),TGI (SK-MEL-5 melanoma),GI50 (HOP-92 NSCLC),TGI (HOP-92 NSCLC)
CC1=C[S+](c2ccccc2)c2cccc3cc4ccccc4c1c23 (stereo not given),0.0458 µM,0.337 µM,0.35 µM,1.5 µM,0.572 µM,9.26 µM,2.41 µM,14.9 µM,0.109 µM,1.21 µM,0.312 µM,7.64 µM,1.26 µM,7.47 µM,0.604 µM,2.38 µM,0.247 µM,0.776 µM,0.506 µM,2.43 µM
O=C1CCc2c(sc3[nH]c(=S)n(Cc4ccccc4)c(=O)c23)C1,2.14 µM,> 100 µM,3.93 µM,> 100 µM,4.39 µM,> 100 µM,2.68 µM,7.05 µM,1.73 µM,6.56 µM,2.62 µM,9.7 µM,4.05 µM,> 100 µM,4.51 µM,> 100 µM,1.86 µM,3.74 µM,1.92 µM,5.33 µM
Cc1cc(C)nc(SC2=C(Nc3cccc(Cl)c3C)C(=O)N(Cc3ccccc3)C2=O)n1,> 160 µM,> 160 µM,> 160 µM,> 160 µM,> 160 µM,> 160 µM,> 160 µM,> 160 µM,> 160 µM,> 160 µM,> 160 µM,> 160 µM,> 160 µM,> 160 µM,> 160 µM,> 160 µM,> 160 µM,> 160 µM,> 160 µM,> 160 µM
COc1ccc(-c2cc(=O)c3c(O)cc(C)cc3o2)cc1OC,,> 100 µM,,> 100 µM,,> 100 µM,,> 100 µM,,> 100 µM,,> 100 µM,,> 100 µM,,> 100 µM,,> 100 µM,,> 100 µM
C/C(Cc1ccc(Cl)cc1)=C(/c1ccc(Cl)cc1)c1ccc(OCCN(C)C)cc1,3.72 µM,8.6 µM,5.04 µM,9.62 µM,4.01 µM,10 µM,5.42 µM,10.5 µM,4.16 µM,8.95 µM,4.27 µM,8.65 µM,4.99 µM,10.5 µM,5.1 µM,10.8 µM,4.4 µM,8.78 µM,1.62 µM,6.48 µM
Cc1nc(N)sc1C(=O)Nc1cc(C(=O)NCCCN(C)C)n(C)c1,> 100 µM,> 100 µM,> 100 µM,> 100 µM,> 100 µM,> 100 µM,> 100 µM,> 100 µM,> 100 µM,> 100 µM,> 100 µM,> 100 µM,> 100 µM,> 100 µM,> 100 µM,> 100 µM,> 100 µM,> 100 µM,> 100 µM,> 100 µM
C#CCOc1cccc(Nc2ncnc3ccc(NC(=O)CCl)cc23)c1,0.364 µM,8.23 µM,1.88 µM,81.9 µM,0.0864 µM,> 89.5 µM,2.59 µM,> 100 µM,0.776 µM,10.6 µM,0.312 µM,7.11 µM,7.43 µM,> 100 µM,2.06 µM,18.1 µM,3.37 µM,8.9 µM,2.9 µM,16.9 µM
O=C(c1ccccc1)c1nc2ccc(C(F)(F)F)cc2[n+]([O-])c1C(F)(F)F,50.3 µM,> 100 µM,71.5 µM,> 100 µM,23 µM,73.7 µM,27.4 µM,> 100 µM,37.3 µM,> 100 µM,23.8 µM,> 100 µM,59 µM,> 100 µM,37.5 µM,> 100 µM,17.5 µM,48 µM,15.1 µM,78.5 µM
CCOC(=O)c1cc2c(n1Cc1ccccc1)-c1oncc1CC2,4.73 µM,34 µM,7 µM,> 100 µM,4.73 µM,44.6 µM,7.07 µM,93.1 µM,3.49 µM,27.6 µM,4.32 µM,40.5 µM,10.7 µM,> 100 µM,14.4 µM,> 100 µM,2.97 µM,12 µM,5.24 µM,42.7 µM
CCCSC1=NC2C(N(CC)C(=O)N2CC)N1/N=C/C=C/c1ccccc1[N+](=O)[O-] (stereo not given),3.42 µM,> 100 µM,3.74 µM,> 100 µM,3.36 µM,> 100 µM,6.07 µM,> 100 µM,3.55 µM,> 100 µM,3.86 µM,> 100 µM,3.32 µM,> 100 µM,10 µM,> 100 µM,2.76 µM,10.3 µM,1.27 µM,8.47 µM
